According to US20260042772A1, “FURO PYRIMIDINE DERIVATES” (Merck Patent GmbH, priority 2022, published 2026):
Read-outs that look alike come from different tables or passages of the source.

Experiments:
[1] = system: chloroquine sensitive (CQS) strain (NF54) of P. falciparum; experiment: In vitro antiplasmodial activity, Assay A (parasite lactate dehydrogenase assay); type: cell-based
Description: Test samples were screened for in vitro antiplasmodial activity against a chloroquine sensitive (CQS) strain (NF54) of the malaria parasite P. falciparum. Continuous in vitro cultures of asexual erythrocyte stages of P. falciparum were maintained using a modified version of the method of Trager and Jensen (1976).1 Quantitative assessment of antiplasmodial activity in vitro was determined via the parasite lactate dehydrogenase assay using a modified method described by Makler (1993). The test samples were tested in triplicate on two separate occasions. Further dilutions were prepared in complete medium on the day of the experiment. Samples were tested as a suspension if not completely dissolved. Chloroquine and artesunate were used as the reference drugs. A full dose-response were performed starting at a concentration of 3000 nM, which is then serially diluted 2-fold in complete medium to give 10 concentrations; with the lowest concentration being approximately 6 nM. The same dilution techniques were used for all samples. References were tested at a starting concentration of 1000 ng/mL. The highest concentration of solvent to which the parasites were exposed has no measurable effect on the parasite viability (data not shown).

[2] = system: CQC sensitive strain (NF54) of P. falciparum; experiment: In vitro antiplasmodial activity, Assay B (as described by Vennerstrom et al. 2004); type: cell-based; details: Plasmodium falciparum; NF54, Vennerstrom et al. method
Description: Compounds were screened against CQC sensitive strain (NF54) of P. falciparum in vitro as described by Vennerstrom et al. (2004). A full dose-response were performed starting at a concentration of 3000 nM, which is then serially diluted 2-fold in complete medium to give 10 concentrations; with the lowest concentration being approximately 6 nM. The same dilution techniques were used for all samples. References were tested at a starting concentration of 1000 ng/mL. The highest concentration of solvent to which the parasites were exposed has no measurable effect on the parasite viability (data not shown).

Row | IC50 ([1]; Plasmodium falciparum) [nM] | IC50 [2] [nM] | Structure (SMILES) | further results
1 | – | 15 to 50 | CC(C)(O)c1cc(-c2ncnc3cc(-c4ccc(C(=O)O)cc4)oc23)ccn1 [Compound P10, 4-(4-(2-(2-hydroxypropan-2-yl)pyridin-4-yl)furo[3,2-d]pyrimidin-6-yl)benzoic acid] | –
2 | – | < 15 | CC(C)(O)c1cc(-c2ncnc3cc(-c4ccc(C(=O)N5CCOCC5)cc4)oc23)ccn1 [Compound P11, (4-(4-(2-(2-hydroxypropan-2-yl)pyridin-4-yl)furo[3,2-d]pyrimidin-6-yl)phenyl)(morpholino) methanone] | –
3 | – | 15 to 50 | CC(C)(O)c1cc(-c2ncnc3cc(-c4ccc(C(=O)N5CC(F)(F)C5)cc4)oc23)ccn1 [Compound P12, (3,3-difluoroazetidin-1-yl)(4-(4-(2-(2-hydroxypropan-2-yl)pyridin-4-yl)furo[3,2-d]pyrimidin-6-yl)phenyl)methanone] | –
4 | > 50 | – | CC(C)(O)c1cccc(-c2ncnc3cc(-c4ccc(C(=O)N5CCOCC5)cc4)oc23)c1 [Compound P13, (4-(4-(3-(2-hydroxypropan-2-yl)phenyl)furo[3,2-d]pyrimidin-6-yl)phenyl)(morpholino) methanone] | –
5 | – | 15 to 50 | CC(C)(O)c1cc(-c2ncnc3cc(-c4ccc(C(=O)N5CCOCC5)cc4)oc23)cc(F)n1 [Compound P14, (4-(4-(2-fluoro-6-(2-hydroxypropan-2-yl)pyridin-4-yl)furo[3,2-d]pyrimidin-6-yl)phenyl)(morpholino) methanone] | –
6 | – | < 15 | C[C@@H]1CN(C(=O)c2ccc(-c3cc4ncnc(-c5ccnc(C(C)(C)O)c5)c4o3)cc2)C[C@@H](C)O1 [Compound P15, ((2R,6R)-2,6-dimethylmorpholino)(4-(4-(2-(2-hydroxypropan-2-yl)pyridin-4-yl)furo[3,2-d]pyrimidin-6-yl)phenyl)methanone] | –
7 | – | < 15 | C[C@H]1CN(C(=O)c2ccc(-c3cc4ncnc(-c5ccnc(C(C)(C)O)c5)c4o3)cc2)C[C@H](C)O1 [Compound P16, ((2S,6S)-2,6-dimethylmorpholino)(4-(4-(2-(2-hydroxypropan-2-yl)pyridin-4-yl)furo[3,2-d]pyrimidin-6-yl)phenyl)methanone] | –
8 | – | < 15 | CN1CCN(C(=O)c2ccc(-c3cc4ncnc(-c5ccnc(C(C)(C)O)c5)c4o3)cc2)CC1 [Compound P22, (4-(4-(2-(2-hydroxypropan-2-yl)pyridin-4-yl)furo[3,2-d]pyrimidin-6-yl)phenyl)(4-methylpiperazin-1-yl)methanone] | –
9 | – | 15 to 50 | CC(C)(O)c1cc(-c2ncnc3cc(-c4ccc(S(C)(=N)=O)cc4)oc23)ccn1 (stereo not drawn) [Compound P25, (4-(4-(2-(2-hydroxypropan-2-yl)pyridin-4-yl)furo[3,2-d]pyrimidin-6-yl)phenyl)(imino)(methyl)-λ6-sulfanone] | –
10 | – | 15 to 50 | CC(C)(O)c1cc(-c2ncnc3cc(-c4ccc([S@@](C)(=N)=O)cc4)oc23)ccn1 [Compound P26, (S)-(4-(4-(2-(2-hydroxypropan-2-yl)pyridin-4-yl)furo[3,2-d]pyrimidin-6-yl)phenyl)(imino)(methyl)-λ6-sulfanone] | –
11 | – | 15 to 50 | CC(C)(O)c1cc(-c2ncnc3cc(-c4ccc([S@](C)(=N)=O)cc4)oc23)ccn1 [Compound P27, (R)-(4-(4-(2-(2-hydroxypropan-2-yl)pyridin-4-yl)furo[3,2-d]pyrimidin-6-yl)phenyl)(imino)(methyl)-λ6-sulfanone] | –
12 | – | < 15 | CC(C)(O)c1cccc(-c2ncnc3cc(-c4ccc([S@@](C)(=N)=O)cc4)oc23)c1F [Compound P29, (S)-(4-(4-(2-fluoro-3-(2-hydroxypropan-2-yl)phenyl)furo[3,2-d]pyrimidin-6-yl)phenyl)(imino)(methyl)-λ6-sulfanone] | –
13 | – | < 15 | CC(C)(O)c1cccc(-c2ncnc3cc(-c4ccc([S@](C)(=N)=O)cc4)oc23)c1F [Compound P30, (R)-(4-(4-(2-fluoro-3-(2-hydroxypropan-2-yl)phenyl)furo[3,2-d]pyrimidin-6-yl)phenyl)(imino)(methyl)-λ6-sulfanone] | –

The next lines start with the molecule.

Row | Structure (SMILES) | IC50 ([1]; Plasmodium falciparum) [nM] | IC50 [2] [nM] | further results
14 | Cn1cc(-c2cc3ncnc(-c4cccc(S(=O)(=O)C5CC5)c4)c3o2)ccc1=O [Compound D22, 5-(4-(3-(cyclopropylsulfonyl)phenyl)furo[3,2-d]pyrimidin-6-yl)-1-methylpyridin-2(1H)-one] | > 50 | – | –
15 | CC(C)(C)OC(=O)c1ccc(-c2cc3ncnc(-c4ccnc(C(C)(C)O)c4)c3o2)cc1 [Compound D162, tert-butyl 4-(4-(2-(2-hydroxypropan-2-yl)pyridin-4-yl)furo[3,2-d]pyrimidin-6-yl)benzoate] | < 15 | – | –
16 | COC(=O)c1cccc(-c2cc3ncnc(-c4ccnc(C(C)(C)O)c4)c3o2)c1 [Compound D163, methyl 3-(4-(2-(2-hydroxypropan-2-yl)pyridin-4-yl)furo[3,2-d]pyrimidin-6-yl)benzoate] | < 15 | – | –
17 | CC(C)(O)c1cc(-c2ncnc3cc(-c4cccc(C(=O)O)c4)oc23)ccn1 [Compound D164, 3-(4-(2-(2-hydroxypropan-2-yl)pyridin-4-yl)furo[3,2-d]pyrimidin-6-yl)benzoic acid] | < 15 | – | –
18 | CC(C)(O)c1cc(F)cc(-c2ncnc3cc(-c4ccc(C(=O)N5CCOCC5)cc4)oc23)c1 [Compound D165, (4-(4-(3-fluoro-5-(2-hydroxypropan-2-yl)phenyl)furo[3,2-d]pyrimidin-6-yl)phenyl)(morpholino) methanone] | < 15 | – | –
19 | CC1COCC(C)N1C(=O)c1ccc(-c2cc3ncnc(-c4ccnc(C(C)(C)O)c4)c3o2)cc1 (stereo not drawn) [Compound D171, (3,5-dimethylmorpholino)(4-(4-(2-(2-hydroxypropan-2-yl)pyridin-4-yl)furo[3,2-d]pyrimidin-6-yl)phenyl)methanone] | > 50 | – | –
20 | CC(C)(O)c1cc(F)cc(-c2ncnc3cc(-c4ccc(C(=O)N5C[C@H]6C[C@@H]5CO6)cc4)oc23)c1 [Compound D173, ((1R,4R)-2-oxa-5-azabicyclo[2.2.1]heptan-5-yl)(4-(4-(3-fluoro-5-(2-hydroxypropan-2-yl)phenyl)furo[3,2-d]pyrimidin-6-yl)phenyl)methanone] | < 15 | – | –
21 | CC(C)(O)c1cc(F)cc(-c2ncnc3cc(-c4ccc(C(=O)N5C[C@@H]6C[C@H]5CO6)cc4)oc23)c1 [Compound D175, ((1S,4S)-2-oxa-5-azabicyclo[2.2.1]heptan-5-yl)(4-(4-(3-fluoro-5-(2-hydroxypropan-2-yl)phenyl)furo[3,2-d]pyrimidin-6-yl)phenyl)methanone] | < 15 | – | –
22 | CC(=O)c1ccc(-c2cc3ncnc(-c4cccc(S(=O)(=O)C5CC5)c4)c3o2)cn1 [Compound P2, 1-(5-(4-(3-(cyclopropylsulfonyl)phenyl)furo[3,2-d]pyrimidin-6-yl)pyridin-2-yl)ethan-1-one] | – | > 50 | –
23 | CS(=O)(=O)c1ccc(-c2cc3ncnc(-c4cccc(C(=O)N5C[C@H]6C[C@@H]5CO6)c4)c3o2)cc1 [Compound P3, ((1R,4R)-2-oxa-5-azabicyclo[2.2.1]heptan-5-yl)(3-(6-(4-(methylsulfonyl)phenyl)furo [3,2-d]pyrimidin-4-yl)phenyl)methanone] | – | > 50 | –
24 | CS(=O)(=O)c1ccc(-c2cc3ncnc(-c4cccc(C(=O)N5C[C@H]6C[C@@H]5CO6)c4F)c3o2)cc1 [Compound P4, ((1R,4R)-2-oxa-5-azabicyclo[2.2.1]heptan-5-yl)(2-fluoro-3-(6-(4-(methylsulfonyl)phenyl)furo [3,2-d]pyrimidin-4-yl)phenyl)methanone] | – | 15 to 50 | –
25 | CS(=O)(=O)c1ccc(-c2cc3ncnc(-c4cccc(C(=O)N5C[C@@H]6C[C@H]5CO6)c4F)c3o2)cc1 [Compound P5, ((1S,4S)-2-oxa-5-azabicyclo[2.2.1]heptan-5-yl)(2-fluoro-3-(6-(4-(methylsulfonyl)phenyl)furo [3,2-d]pyrimidin-4-yl)phenyl)methanone] | – | 15 to 50 | –
26 | CC(C)(O)Cc1cc(-c2ncnc3cc(-c4ccc(S(C)(=O)=O)cc4)oc23)ccn1 [Compound P6, 2-methyl-1-(4-(6-(4-(methylsulfonyl)phenyl)furo [3,2-d]pyrimidin-4-yl)pyridin-2-yl)propan-2-ol] | – | > 50 | –
27 | CC(C)(O)c1cc(-c2ncnc3cc(-c4ccc(S(C)(=O)=O)cc4)oc23)ccn1 [Compound P7, 2-(4-(6-(4-(methylsulfonyl)phenyl)furo [3,2-d]pyrimidin-4-yl)pyridin-2-yl)propan-2-ol] | – | 15 to 50 | –
28 | CN(C)C(=O)c1ccc(-c2cc3ncnc(-c4ccnc(C(C)(C)O)c4)c3o2)cc1 [Compound P8, 4-(4-(2-(2-hydroxypropan-2-yl)pyridin-4-yl)furo[3,2-d]pyrimidin-6-yl)-N,N-dimethylbenzamide] | – | 15 to 50 | –
29 | CN(C)C(=O)c1ccc(-c2cc3ncnc(-c4cccc(C(C)(C)O)c4)c3o2)cc1 [Compound P9, 4-(4-(3-(2-hydroxypropan-2-yl)phenyl)furo[3,2-d]pyrimidin-6-yl)-N,N-dimethylbenzamide] | – | 15 to 50 | –
30 | CC(C)(O)c1cccc(-c2ncnc3cc(-c4ccc(S(C)(=N)=O)cc4)oc23)c1F (stereo not drawn) [Compound P28, (4-(4-(2-fluoro-3-(2-hydroxypropan-2-yl)phenyl)furo[3,2-d]pyrimidin-6-yl)phenyl)(imino)(methyl)-λ6-sulfanone] | – | – | IC50 [1]: < 15 nM
